Measurements as given in ChEMBL document CHEMBL5726126, “2-pyridylamino-4-nitrile-piperidinyl orexin receptor antagonists” (2017).

Target: T1, Orexin receptor type 2 (Homo sapiens, UniProt O43614)
T1 sequence (O43614 whole entry): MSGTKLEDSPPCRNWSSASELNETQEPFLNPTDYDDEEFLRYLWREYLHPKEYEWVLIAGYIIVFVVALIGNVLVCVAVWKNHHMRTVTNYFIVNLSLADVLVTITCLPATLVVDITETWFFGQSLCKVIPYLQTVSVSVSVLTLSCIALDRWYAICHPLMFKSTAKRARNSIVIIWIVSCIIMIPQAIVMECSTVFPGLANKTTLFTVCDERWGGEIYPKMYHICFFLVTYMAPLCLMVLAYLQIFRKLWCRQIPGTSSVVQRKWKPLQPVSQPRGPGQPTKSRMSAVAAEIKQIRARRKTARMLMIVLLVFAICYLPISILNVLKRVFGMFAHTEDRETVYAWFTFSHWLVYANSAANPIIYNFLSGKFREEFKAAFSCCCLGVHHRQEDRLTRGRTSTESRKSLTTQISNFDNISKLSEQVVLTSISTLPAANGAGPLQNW
Test: FLIPR Ca2+ Flux Assay: FLIPR Ca2+ Flux Assay- (Okumura et al., Biochem. Biophys. Res. Comm. 280:976-981, 2001). In a typical experiment the OX1 and OX2 receptor antagonistic activity of the compounds of the present invention was determined in accordance with the following experimental method. For intracellular calcium measurements, Chinese hamster ovary (CHO) cells expressing the rat orexin-1 receptor or the human orexin-2 receptor, are grown in Iscove's modified DMEM containing 2 mM L-glutamine, […], 1% hypoxanthine-thymidine supplement, 100 U/ml penicillin, 100 μg/ml streptomycin and 10% heat-inactivated fetal calf serum (FCS). The cells are seeded at 20,000 cells/well into Becton-Dickinson black 384-well clear bottom sterile plates coated with poly-D-lysine. All reagents were from GIBCO-Invitrogen Corp. The seeded plates are incubated overnight at […]. and 5% CO2. Ala-6,12 human orexin-A as the agonist is prepared as a 1 mM stock solution in 1% bovine serum albumin (BSA) and diluted in assay buffer (HBSS containing 20 mM HEPES, 0.1% BSA and 2.5 mM probenecid, pH7.4) for use in the assay at a final concentration of 70 pM. Test compounds are prepared as 10 mM stock solution in DMSO, then diluted in 384-well plates, first in DMSO, then assay buffer. […]
Type: cell-based

CC(=O)N(c1cc(C#N)ccn1)[C@@H]1CC[C@@H](C)N(C(=O)c2ccccc2-n2nccn2)C1
IC50: 1780 nM
